Test results published in patent publication US20200123137A1, “DEUTERATED CFTR MODULATORS AND METHODS OF USE” (ABBVIE S.À.R.L., priority 2016, published 2020).

Key:
F508del/F508del CFTR = target: T1, F508del/F508del CFTR (Homo sapiens, UniProt P13569, DEL508-508); assay: Transepithelial Clamp Circuit (TECC-24) conductance assay on primary human bronchial epithelial cells; format: cell-based; settings: primary hBE cells F508del/F508del
T1 construct: cells isolated from CF patients with the homozygous mutation; endogenous in cells; host or cells: primary human bronchial epithelial (hBE) cells from F508del/F508del CF patients
T1 sequence (P13569 with tags, fused parts or gaps DEL508-508): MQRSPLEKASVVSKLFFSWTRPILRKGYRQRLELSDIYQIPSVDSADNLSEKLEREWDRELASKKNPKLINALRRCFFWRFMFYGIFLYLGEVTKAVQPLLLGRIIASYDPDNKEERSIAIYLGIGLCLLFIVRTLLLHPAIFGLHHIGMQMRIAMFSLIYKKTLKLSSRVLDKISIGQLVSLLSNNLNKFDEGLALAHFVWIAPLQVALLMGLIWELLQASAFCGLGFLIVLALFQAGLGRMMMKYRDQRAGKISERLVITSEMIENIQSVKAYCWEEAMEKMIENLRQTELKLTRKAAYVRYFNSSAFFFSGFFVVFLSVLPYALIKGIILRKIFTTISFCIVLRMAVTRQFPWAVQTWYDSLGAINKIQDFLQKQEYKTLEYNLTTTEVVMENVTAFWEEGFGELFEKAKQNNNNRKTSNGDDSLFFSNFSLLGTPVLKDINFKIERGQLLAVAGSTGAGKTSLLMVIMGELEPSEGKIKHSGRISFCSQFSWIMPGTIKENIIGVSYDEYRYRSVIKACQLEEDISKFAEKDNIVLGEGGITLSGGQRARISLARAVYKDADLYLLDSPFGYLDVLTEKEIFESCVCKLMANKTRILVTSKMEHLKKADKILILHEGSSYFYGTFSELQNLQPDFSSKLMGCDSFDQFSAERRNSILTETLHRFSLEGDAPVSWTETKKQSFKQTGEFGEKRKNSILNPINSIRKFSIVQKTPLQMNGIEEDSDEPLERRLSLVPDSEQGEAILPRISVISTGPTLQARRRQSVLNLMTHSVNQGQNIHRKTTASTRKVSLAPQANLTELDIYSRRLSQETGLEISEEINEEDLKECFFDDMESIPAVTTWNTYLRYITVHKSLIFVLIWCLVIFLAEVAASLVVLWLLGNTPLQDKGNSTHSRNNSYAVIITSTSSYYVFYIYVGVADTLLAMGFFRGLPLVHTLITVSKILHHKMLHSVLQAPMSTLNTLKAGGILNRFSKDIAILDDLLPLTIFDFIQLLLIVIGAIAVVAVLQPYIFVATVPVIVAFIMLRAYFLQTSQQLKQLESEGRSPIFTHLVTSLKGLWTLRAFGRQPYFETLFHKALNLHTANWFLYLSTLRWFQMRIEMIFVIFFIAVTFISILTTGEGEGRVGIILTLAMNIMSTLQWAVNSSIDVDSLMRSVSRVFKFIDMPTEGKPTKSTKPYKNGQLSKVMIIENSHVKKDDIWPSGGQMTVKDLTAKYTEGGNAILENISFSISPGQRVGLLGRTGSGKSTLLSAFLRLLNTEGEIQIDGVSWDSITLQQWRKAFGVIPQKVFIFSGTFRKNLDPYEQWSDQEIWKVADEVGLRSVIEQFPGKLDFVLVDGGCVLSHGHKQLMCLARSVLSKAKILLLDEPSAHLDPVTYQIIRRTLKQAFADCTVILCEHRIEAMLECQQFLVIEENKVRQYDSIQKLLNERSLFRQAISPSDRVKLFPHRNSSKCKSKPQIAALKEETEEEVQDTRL
From the text: A cell based assay using the primary human bronchial epithelial cells (hBE) was used as a secondary assay to test novel F508delCFTR correctors for their activity on primary hBE cells with F508del/F508del CFTR mutation. The assay used a TECC-24 (Transepithelial Clamp Circuit for 24 wells) instrument that measures the functionality of the mutated channel by measuring the equivalent short circuit current (Ieq) generated by the polarized epithelial cells. The instrument works by measuring the transepithelial potential difference (Vt) and transepithelial resistance (Rt) in an open circuit format, and the Ieq is calculated by using Ohms law (Ieq=Vt/Rt). The assay was run in a 24-well format and all 24-wells were measured at the same time point giving a higher throughput for this assay.
Primary human bronchial epithelial (hBE) cells from F508del/F508delCFTR patients were expanded from 1×10^6 to 250×10^6 cells (Neuberger T, Burton B, Clark H and VanGoor F; Cystic Fibrosis, Methods in Mole Biol 741; eds. Amaral M D and Kunzelmann K, 2011). […]
The % activity measured at each of the 6 test concentrations of the test compound was normalized to the on-plate positive control using the following formula: […]

F508delCFTR = F508delCFTR (Homo sapiens, UniProt P13569, DEL508-508); assay: Cell Surface Expression-Horse Radish Peroxidase (CSE-HRP) assay; format: cell-based; settings: CFBE41o-F508delCFTR-HRP cells
Chain of F508delCFTR (P13569 with tags, fused parts or gaps DEL508-508): as above
Method: A cellular assay for measuring the F508delCFTR cell surface expression after correction with test compounds was developed in human lung derived epithelial cell line (CFBE41o-) (Veit G et al, (2012) Mol Biol Cell. 23(21): 4188-4202). This was achieved by expressing the F508delCFTR mutation along with a horseradish peroxidase (HRP) in the fourth exofacial loop and then measuring the HRP activity using luminescence readout from these cells, CFBE41o-F508delCFTR-HRP, that were incubated overnight with the test corrector compounds. […] Post incubation, the plates were washed 5 x times with Dulbecco's phosphate buffered saline (DPBS), followed by the addition of the HRP substrate, luminol (50 μL), and measuring the HRP activity using luminescence readout on EnVision® Multilabel Plate Reader (Perkin Elmer; product number 2104-0010). The raw counts from the experiment are analyzed using Accelrys® Assay Explorer v3.3. […]
The % activity measured at each of the 8 test concentrations of the test compound was normalized to the on-plate positive control using the following formula: […]
The maximum % activity achieved for the test compound at any tested concentration is presented in Table 1 along with the EC50 calculated using the following general sigmoidal curve with variable Hill slope equation (described as Model 42 in the Accelrys® Assay Explorer v3.3 software): […]

Question: For `[2H]c1cc(C(=O)O)cc([2H])c1C1Oc2cc(OC(F)F)c([2H])c([2H])c2C([2H])(NC(=O)C2(c3ccc4c(c3)OC(F)(F)O4)CC2)C1([2H])[2H]` [Example 1, 4-[(2R,4R)-4-({[1-(2,2-difluoro-1,3-benzodioxol-5-yl)cyclopropyl]carbonyl}amino)-7-(difluoromethoxy)(3,3,4,5,6-^2H5)-3,4-dihydro-2H-chromen-2-yl](3,5-^2H2)benzoic acid], which EC50 (F508del/F508del CFTR; 18-24 hours at 37° C., equivalent short circuit current (Ieq), with control potentiator) is on record?
Answer: 13 nM

Question: What about the Maximum % activity (F508del/F508del CFTR; relative to positive control (0.15 μM) coupled with control potentiator = 100%) of the same molecule?
Answer: 96%

Question: What about the EC50 (F508delCFTR; F508delCFTR cell surface expression, 18-24 hours at 33° C., luminescence readout) of the same molecule?
Answer: 27 nM

Question: What about the Maximum % activity (F508delCFTR; maximum at any tested concentration, normalized to on-plate positive control (3 μM)) of the same molecule?
Answer: 145%
